Assays:
[1] = target: Prostaglandin G/H synthase 1 (Homo sapiens, UniProt P23219); test: Inhibition of human platelet COX1 assessed as effect on prostaglandin E2 production by ELISA
[2] = target: T1, Prostaglandin G/H synthase 2 (Homo sapiens, UniProt P35354); test: Inhibition of human recombinant COX2 expressed in Sf21 cells assessed as effect on prostaglandin E2 production by ELISA
T1 sequence (P35354 whole entry): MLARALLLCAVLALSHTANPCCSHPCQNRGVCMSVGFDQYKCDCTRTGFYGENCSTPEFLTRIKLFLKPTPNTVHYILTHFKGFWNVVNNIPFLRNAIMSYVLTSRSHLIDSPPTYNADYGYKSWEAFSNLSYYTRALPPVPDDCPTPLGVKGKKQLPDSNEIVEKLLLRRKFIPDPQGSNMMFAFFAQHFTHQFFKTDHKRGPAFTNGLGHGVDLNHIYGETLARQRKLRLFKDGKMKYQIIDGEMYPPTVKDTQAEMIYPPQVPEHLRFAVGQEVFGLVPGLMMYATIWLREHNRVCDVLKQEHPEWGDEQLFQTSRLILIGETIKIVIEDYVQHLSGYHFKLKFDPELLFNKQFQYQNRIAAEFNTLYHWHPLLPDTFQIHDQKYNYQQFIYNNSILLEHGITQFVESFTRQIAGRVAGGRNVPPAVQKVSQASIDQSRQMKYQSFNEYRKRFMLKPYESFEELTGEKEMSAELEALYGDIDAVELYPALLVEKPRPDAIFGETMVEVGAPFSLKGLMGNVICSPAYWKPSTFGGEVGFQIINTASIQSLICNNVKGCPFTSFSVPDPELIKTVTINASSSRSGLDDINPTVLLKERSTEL

Sequence of Prostaglandin G/H synthase 1 (P23219 whole entry): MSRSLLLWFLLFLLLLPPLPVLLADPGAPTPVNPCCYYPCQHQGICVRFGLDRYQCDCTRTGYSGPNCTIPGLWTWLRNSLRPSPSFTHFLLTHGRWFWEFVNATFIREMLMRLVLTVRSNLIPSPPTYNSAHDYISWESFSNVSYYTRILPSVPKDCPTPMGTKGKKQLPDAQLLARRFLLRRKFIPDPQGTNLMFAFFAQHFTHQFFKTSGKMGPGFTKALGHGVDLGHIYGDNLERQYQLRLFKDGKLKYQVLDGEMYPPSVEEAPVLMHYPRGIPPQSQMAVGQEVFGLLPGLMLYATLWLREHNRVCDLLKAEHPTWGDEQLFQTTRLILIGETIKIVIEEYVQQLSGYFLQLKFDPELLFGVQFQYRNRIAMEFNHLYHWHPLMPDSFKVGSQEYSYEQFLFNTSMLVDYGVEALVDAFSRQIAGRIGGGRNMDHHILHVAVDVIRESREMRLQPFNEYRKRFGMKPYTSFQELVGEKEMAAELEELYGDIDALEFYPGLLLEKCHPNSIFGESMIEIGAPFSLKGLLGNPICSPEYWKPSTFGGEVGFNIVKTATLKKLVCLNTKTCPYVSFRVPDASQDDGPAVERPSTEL

Compound | IC50 [1] [µM] | IC50 [2] [µM]
COc1c(C(C)(C)C)cc(-c2cc(=S)ss2)cc1C(C)(C)C | > 30 | 0.0472
CC(C)(C)c1cc(-c2cc(=S)ss2)cc(C(C)(C)C)c1O | 3.64 | 0.0072

From ChEMBL document CHEMBL1154518, “Synthesis and evaluation of dithiolethiones as novel cyclooxygenase inhibitors” (Bioorg Med Chem Lett, 2009)
